{"source": "paper PMC6131539", "about": "“Behavioral Effects of a Potential Novel TAAR1 Antagonist” (Frontiers in Pharmacology, 2018)", "key": {"TAAR1-KO mice [1]": {"system": "TAAR1-KO mice", "test": "Stereotypic counts, co-injection with amphetamine, TAAR1-KO mice", "format": "in vivo", "details": "only 15 mg/kg, co-injected with amphetamine 2 mg/kg", "experimental": "(§1) Experimentally naïve mice, of at least 12 weeks of age, were used for all behavioral experiments. The mice were randomly assigned to treatment or control groups, balanced by sex and weight. Locomotor activity was assessed using the automated locomotor analysis monitors (Omnitech Electronics, Columbus, OH, United States). The apparatus included four open field monitors. Each Open Field monitor consisted of sets of 16 light beams arrayed in the horizontal X and Y axes. The hardware detected beams broken by the animal, which allowed the software to determine the location of the mouse in the cage. Total distance covered by mice was used to characterize locomotor activity of the animals. The monitors were divided into four compartments (20 cm × 20 cm). Animals were tested individually for defined periods with 5-min intervals. The mice were first weighed and then placed into the apparatus, allowing for 30 min habituation. […] The locomotor activity was then measured for additional 1 h. […]\nSupplementary file Image_2.TIF: FIGURE S2 In vivo studies with TAAR1-KO mice and compound 22 on stereotypic counts activity. […] The sum of stereotypic counts was assessed over 60 min after the injection of amphetamine and compound 22 in WT (solid bars) or TAAR1-KO mice (spotted bars). […] The sum of stereotypic counts was assessed over 60 min following the injection in WT (solid bars) or TAAR1-KO mice (dotted bars). […]"}, "TAAR1-KO mice [2]": {"system": "TAAR1-KO mice", "test": "Amphetamine-induced locomotor activity, co-injection, TAAR1-KO mice", "format": "in vivo", "details": "15 mg/kg co-injected with amphetamine 2 mg/kg, p = 0.004", "experimental": "(§2) The Taarl^-/- (TAAR1-KO) mice were obtained from Lundbeck ([Wolinsky et al., 2007]). All wild type (WT) and TAAR1-KO mice used for experiments were generated from TAAR1-KO heterozygous mice in a C57BL/6J x 129S1/Sv mixed background.\n(§3) Experimentally naïve mice, of at least 12 weeks of age, were used for all behavioral experiments. The mice were randomly assigned to treatment or control groups, balanced by sex and weight. Locomotor activity was assessed using the automated locomotor analysis monitors (Omnitech Electronics, Columbus, OH, United States). The apparatus included four open field monitors. Each Open Field monitor consisted of sets of 16 light beams arrayed in the horizontal X and Y axes. The hardware detected beams broken by the animal, which allowed the software to determine the location of the mouse in the cage. Total distance covered by mice was used to characterize locomotor activity of the animals. The monitors were divided into four compartments (20 cm × 20 cm). Animals were tested individually for defined periods with 5-min intervals. The mice were first weighed and then placed into the apparatus, allowing for 30 min habituation. Following the habituation, the mice were removed from the al apparatus and injected with drugs (see below for administration) or vehicle and returned immediately to the locomotor chamber."}, "TAAR1-KO mice [3]": {"system": "TAAR1-KO mice", "test": "Cocaine-induced locomotor activity, co-injection, TAAR1-KO mice", "format": "in vivo", "details": "5, 15 and 25 mg/kg co-injected with cocaine 10 mg/kg", "experimental": "as §2, §1\nThe locomotor activity was assessed for 60 min following the injection. […]"}, "C57BL/6J mice": {"system": "C57BL/6J mice", "test": "Amphetamine-induced locomotor activity, co-injection, C57BL/6J mice", "format": "in vivo", "details": "60 min", "experimental": "as §3, with “chamber. The locomotor activity was then measured for additional 1 h. After the experiments, the animals were euthanized by cervical dislocation.” for “chamber.”\nAll drug solutions were prepared freshly on the day of the experiment and injected i.p. at the volume of 10 ml/kg. […] Amphetamine was dissolved in 0.9% saline at a concentration of 0.2 mg/mL.\nThe effect of compound 22 (5, 15, 20, 30, and 50 mg/kg) on locomotor activity, in mice, in combination to a single, sub-maximal dose of amphetamine (2 mg/kg) was carried out (Figure 2). […] Although not significant, there was a trend toward an increase in locomotor activity at the dose of 5 mg/kg as well (28% increase, p = 0.32).\nFIGURE 2 In vivo studies with compound 22 co-injected with amphetamine in WT mice. Wild type C57BL/6J mice were first habituated for 30 min followed by the co-injection of amphetamine (2 mg/kg) and saline or compound 22 at doses 5, 15, 20, 25, 30, and 50 mg/kg. The locomotor activity was assessed for 60 min after the injection. (A) Locomotor activity over time for 2 mg/kg amphetamine only or co-injected with 5, 15, or 20 mg/kg compound 22; (B) locomotor activity over time for 2 mg/kg amphetamine only or co-injected with 30 or 50 mg/kg compound 22; (C) sum of locomotor activity over 60 min after the injection of amphetamine and compound 22. Data are means ± SEM; N = 12–18 for compound 22 treated alone and N = 66 for amphetamine treated alone. A one way ANOVA was performed [F(5,126) = 4.788, p = 0.0005] followed by Dunnett’s post hoc analyses (^∗p < 0.05, ^∗∗∗p < 0.001)."}, "TAAR1": {"system": "TAAR1", "design": "method as in Lam et al., 2015b", "details": "previous study; ref Lam et al., 2015b; read-out: IC50 (TAAR1 antagonist); cited from earlier work"}}}
{"smiles": "Clc1ccc(CNCc2ccc(Cn3cncn3)cc2)c(Cl)c1", "note": "[compound 22]", "values": [{"measurement": "stereotypic counts", "setting": "TAAR1-KO mice [1]", "value": "statistically significant increase in stereotypic counts"}, {"measurement": "potentiation of locomotor stimulating effects of amphetamine", "setting": "TAAR1-KO mice [2]", "value": 84, "unit": "%"}, {"measurement": "effect on locomotor stimulating effects of cocaine", "setting": "TAAR1-KO mice [3]", "value": "significantly potentiate"}, {"measurement": "increase in amphetamine-stimulated locomotor activity", "setting": "C57BL/6J mice; 5 mg/kg i.p. co-injected with amphetamine 2 mg/kg, not significant, p = 0.32", "value": 28, "unit": "%"}, {"measurement": "increase in amphetamine-stimulated locomotor activity", "setting": "C57BL/6J mice; 15 mg/kg i.p. co-injected with amphetamine 2 mg/kg, p = 0.04", "value": 44, "unit": "%"}, {"measurement": "increase in amphetamine-stimulated locomotor activity", "setting": "C57BL/6J mice; 20 mg/kg i.p. co-injected with amphetamine 2 mg/kg, p = 0.02", "value": 57, "unit": "%"}, {"measurement": "increase in amphetamine-stimulated locomotor activity", "setting": "C57BL/6J mice; 30 mg/kg i.p. co-injected with amphetamine 2 mg/kg, p = 0.0009", "value": 77, "unit": "%"}, {"measurement": "change in amphetamine-stimulated locomotor activity", "setting": "C57BL/6J mice; 50 mg/kg i.p. co-injected with amphetamine 2 mg/kg", "value": "no difference in locomotor activity"}, {"measurement": "IC50", "setting": "TAAR1", "value": "> 100", "unit": "µM"}]}
